According to ChEMBL document CHEMBL4616619, “Acetylene Group, Friend or Foe in Medicinal Chemistry” (J Med Chem, 2020):
≈ marks a conversion by molar mass, not a printed value.

Legend:
[1] = Cmax in rhesus monkey at 8 mg/kg, po; assay type: ADME, organism-based, Macaca mulatta; set-up: dose 8 mg/kg, route oral; details: in vivo
Poliovirus 1 = assay: Antiviral activity against Poliovirus type 1 Mahoney infected in African green monkey BSC1 cells by crystal violet staining based plaque reduction assay; assay type: functional, organism-based; details: Enterovirus C, BSC-1
[2] = target: T1, Dihydropyrimidine dehydrogenase [NADP(+)] (Bos taurus) (UniProt Q28007); assay: Inactivation of bovine liver DHPDHase assessed as Kinact in presence of NADPH
T1 sequence (whole entry): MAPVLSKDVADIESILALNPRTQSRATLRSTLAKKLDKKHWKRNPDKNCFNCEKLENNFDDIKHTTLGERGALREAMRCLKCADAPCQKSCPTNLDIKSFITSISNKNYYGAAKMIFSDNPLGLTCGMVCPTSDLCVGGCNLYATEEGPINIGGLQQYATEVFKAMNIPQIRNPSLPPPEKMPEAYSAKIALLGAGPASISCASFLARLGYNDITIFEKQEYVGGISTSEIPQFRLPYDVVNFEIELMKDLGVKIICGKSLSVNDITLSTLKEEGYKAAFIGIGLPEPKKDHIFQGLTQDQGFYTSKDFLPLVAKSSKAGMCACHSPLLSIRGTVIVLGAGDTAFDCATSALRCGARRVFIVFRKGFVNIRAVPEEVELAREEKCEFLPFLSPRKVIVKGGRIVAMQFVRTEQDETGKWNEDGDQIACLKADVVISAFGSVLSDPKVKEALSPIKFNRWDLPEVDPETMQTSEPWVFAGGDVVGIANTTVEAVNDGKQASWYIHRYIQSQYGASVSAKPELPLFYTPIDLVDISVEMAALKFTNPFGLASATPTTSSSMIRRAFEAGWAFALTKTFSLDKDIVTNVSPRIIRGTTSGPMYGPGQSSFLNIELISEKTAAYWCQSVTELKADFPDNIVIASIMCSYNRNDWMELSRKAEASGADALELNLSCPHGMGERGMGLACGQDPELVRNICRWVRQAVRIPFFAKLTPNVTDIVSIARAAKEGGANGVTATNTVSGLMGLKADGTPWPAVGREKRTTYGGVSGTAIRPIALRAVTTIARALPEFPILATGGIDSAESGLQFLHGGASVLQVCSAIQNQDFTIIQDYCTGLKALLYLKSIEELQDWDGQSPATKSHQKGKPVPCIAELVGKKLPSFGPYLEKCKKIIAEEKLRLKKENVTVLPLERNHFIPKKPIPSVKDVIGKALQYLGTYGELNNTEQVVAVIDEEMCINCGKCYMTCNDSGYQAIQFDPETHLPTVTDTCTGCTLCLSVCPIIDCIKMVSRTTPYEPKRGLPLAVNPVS

[3] = Half life in cynomolgus monkey; assay type: ADME, Macaca fascicularis; details: in vivo
[4] = Plasma clearance in iv dosed cynomolgus monkey; assay type: ADME, organism-based, Macaca fascicularis
[5] = Substrate activity at UDP-glucuronosyltransferase in cynomolgus monkey microsomes assessed as Vmax; assay type: ADME, Macaca fascicularis
Cholinesterase = Cholinesterase (Homo sapiens, UniProt P06276); assay: Inhibition of butyrylcholinesterase (unknown origin)
Chain of Cholinesterase (P06276 whole entry): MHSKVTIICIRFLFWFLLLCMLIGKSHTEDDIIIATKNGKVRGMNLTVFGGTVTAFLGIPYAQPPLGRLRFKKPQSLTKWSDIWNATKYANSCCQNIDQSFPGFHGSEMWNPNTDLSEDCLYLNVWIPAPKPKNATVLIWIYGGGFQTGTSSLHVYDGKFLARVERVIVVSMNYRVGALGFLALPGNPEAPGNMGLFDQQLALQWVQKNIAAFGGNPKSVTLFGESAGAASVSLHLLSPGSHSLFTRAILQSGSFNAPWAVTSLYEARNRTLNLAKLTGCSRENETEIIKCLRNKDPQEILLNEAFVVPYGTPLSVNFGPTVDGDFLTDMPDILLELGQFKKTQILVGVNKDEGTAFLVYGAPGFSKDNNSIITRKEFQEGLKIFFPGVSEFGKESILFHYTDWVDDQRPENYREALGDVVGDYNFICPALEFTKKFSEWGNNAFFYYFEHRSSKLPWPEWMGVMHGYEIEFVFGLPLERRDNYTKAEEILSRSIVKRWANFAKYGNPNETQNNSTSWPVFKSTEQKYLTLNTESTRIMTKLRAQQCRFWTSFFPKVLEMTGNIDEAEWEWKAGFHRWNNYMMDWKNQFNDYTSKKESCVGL

Acetylcholinesterase = Acetylcholinesterase (Homo sapiens, UniProt P22303); assay: Inhibition of acetylcholinesterase (unknown origin)
Chain of Acetylcholinesterase (P22303 whole entry): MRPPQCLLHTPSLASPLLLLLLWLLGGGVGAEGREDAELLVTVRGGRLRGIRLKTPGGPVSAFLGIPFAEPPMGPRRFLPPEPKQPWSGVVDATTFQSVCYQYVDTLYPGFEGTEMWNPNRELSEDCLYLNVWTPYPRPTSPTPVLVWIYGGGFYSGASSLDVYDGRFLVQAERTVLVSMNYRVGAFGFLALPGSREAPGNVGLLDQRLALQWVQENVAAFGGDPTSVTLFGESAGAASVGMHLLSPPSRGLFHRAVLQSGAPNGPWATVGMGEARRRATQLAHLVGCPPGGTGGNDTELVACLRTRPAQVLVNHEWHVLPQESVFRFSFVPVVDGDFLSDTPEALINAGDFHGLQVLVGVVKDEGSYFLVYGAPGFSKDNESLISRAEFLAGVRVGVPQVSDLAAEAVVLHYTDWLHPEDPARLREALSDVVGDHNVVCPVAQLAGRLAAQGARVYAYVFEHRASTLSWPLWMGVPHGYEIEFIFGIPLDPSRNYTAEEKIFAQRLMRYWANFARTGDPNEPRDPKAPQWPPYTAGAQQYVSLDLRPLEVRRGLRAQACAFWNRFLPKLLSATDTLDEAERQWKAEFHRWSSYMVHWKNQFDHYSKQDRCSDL

[6] = Cytotoxicity against human MT2 cells; assay type: cell-based
[7] = test system: Human immunodeficiency virus 1; assay: Antiviral activity against HIV1 3B infected in human MT2 cells; assay type: functional, organism-based; details: Human immunodeficiency virus 1, 3B
[8] = target: T2, Thymidine kinase, cytosolic (Homo sapiens, UniProt P04183); assay: (§1) Substrate activity at human thymidine kinase 1 assessed as Km incubated for 24 hrs; assay type: ADME
T2 sequence (P04183 whole entry): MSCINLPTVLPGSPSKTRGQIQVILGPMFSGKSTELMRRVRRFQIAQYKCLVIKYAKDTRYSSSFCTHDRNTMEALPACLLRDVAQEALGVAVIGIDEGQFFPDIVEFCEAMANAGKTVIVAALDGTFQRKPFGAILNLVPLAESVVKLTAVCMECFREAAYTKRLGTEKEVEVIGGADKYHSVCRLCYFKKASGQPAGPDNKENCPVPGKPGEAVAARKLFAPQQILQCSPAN

[9] = Stability in human liver microsomes assessed as compound metabolized at 25 uM after 30 mins in presence of NADPH by HPLC analysis; assay type: ADME, Microsome; details: read-out: Drug metabolism
[10] = Thermodynamic aqueous solubility of compound in pH 7 buffer at 1 to 2 mg after 4 hrs by HPLC analysis; assay type: physicochemical; details: read-out: Therm_solubility
[11] = Half life in human plasma at 25 uM after 1 to 3 hrs by reversed-phase HPLC; assay type: ADME, cell-free
Human rhinovirus sp. = assay: Antiviral activity against Human rhinovirus; assay type: functional, organism-based
[12] = target: T3, Amine oxidase [flavin-containing] A (Homo sapiens, UniProt P21397); assay: Inhibition of human MAO-A using Tyramine hydrochloride as substrate preincubated for 30 mins followed by substrate addition and measured for 1 hr by fluorometric method
T3 sequence (P21397 whole entry): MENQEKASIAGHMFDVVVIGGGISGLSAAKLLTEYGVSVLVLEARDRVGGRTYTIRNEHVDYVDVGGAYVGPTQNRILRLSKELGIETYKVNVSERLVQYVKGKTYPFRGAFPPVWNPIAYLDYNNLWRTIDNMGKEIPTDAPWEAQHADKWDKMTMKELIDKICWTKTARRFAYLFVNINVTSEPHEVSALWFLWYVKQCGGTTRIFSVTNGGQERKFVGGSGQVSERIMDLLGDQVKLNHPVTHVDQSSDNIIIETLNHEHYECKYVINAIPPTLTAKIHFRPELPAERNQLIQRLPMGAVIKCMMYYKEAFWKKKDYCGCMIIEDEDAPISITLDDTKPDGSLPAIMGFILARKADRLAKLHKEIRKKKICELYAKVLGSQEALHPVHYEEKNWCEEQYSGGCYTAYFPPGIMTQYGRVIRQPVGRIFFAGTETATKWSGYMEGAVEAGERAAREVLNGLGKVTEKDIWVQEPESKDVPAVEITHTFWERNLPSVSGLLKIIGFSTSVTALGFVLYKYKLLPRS

[13] = Selectivity ratio of CC50 for human MT4 cells to IC50 for HIV-1 3B; assay type: toxicity; details: read-out: Ratio CC50/IC50
[14] = test system: Human immunodeficiency virus 1; assay: Antiviral activity against HIV-1 3B infected in human MT4 cells incubated for 5 days by MTT assay; assay type: functional, organism-based; details: Human immunodeficiency virus 1, 3B, MT4, 120 h
[15] = Cytotoxicity against human MT4 cells; assay type: cell-based
[16] = target: T3, Amine oxidase [flavin-containing] A; assay: Inhibition of human MAO-A
rhinovirus B14 = assay: Antiviral activity against Human rhinovirus 14 infected in HeLa […] cells after 2 days by XTT/PMS assay; assay type: functional, organism-based; details: Rhinovirus B, 48 h
[17] = Inactivation of CYP2B1 (unknown origin); set-up: species or system Homo sapiens
Homo sapiens = organism: Homo sapiens; assay: Inactivation of CYP2B1 (unknown origin) assessed as Kinact
[18] = substrate: C#C[C@@]1(CO)C=C[C@H](n2cc(C)c(=O)[nH]c2=O)O1; assay: as §1; assay type: ADME

C/C=C(\c1ccccc1)c1ccc2nc(N)n(S(=O)(=O)C(C)C)c2c1
Cmax [1]: 14 to 140 ng/mL | IC50 (Poliovirus 1): 0.06 µg/mL (≈ 0.169 µM)

O=c1[nH]cc(Br)c(=O)[nH]1
Kinact [2]: 0.42 min⁻¹

CC#Cn1ccc(=O)[nH]c1=O
Kinact [2]: 0.46 min⁻¹

C#C/C=C(\c1ccccc1)c1ccc2nc(N)n(S(=O)(=O)C(C)C)c2c1
Cmax [1]: 70 to 300 ng/mL | IC50 (Poliovirus 1): 0.02 µg/mL (≈ 0.0547 µM)

CC(C#Cc1cccc(Oc2ccc(F)cc2)c1)N(O)C(N)=O (stereo unspecified) [FENLEUTON]
half-life [3]: 5.5 h | clearance [4]: 1.3 mL/min/kg | Vmax [5]: 0.05 nmol/min/mg

C#CCNCc1cc2cc(OCc3ccccc3)ccc2[nH]1
IC50 (Cholinesterase): > 100000 nM | IC50 (Acetylcholinesterase): > 100000 nM

N#Cc1cnc(O)nc1O
Kinact [2]: 0.78 min⁻¹

[N-]=[N+]=C1C=NC(=O)NC1=O
Kinact [2]: 1.68 min⁻¹

Cc1cn([C@H]2C=C[C@@](C#N)(CO)O2)c(=O)[nH]c1=O
CC50 [6]: > 100000 nM | EC50 [7]: 7000 nM

Cc1cn([C@H]2C=C[C@@H](CO)O2)c(=O)[nH]c1=O [STAVUDINE]
CC50 [6]: 98000 nM | Km [8]: 133 µM | EC50 [7]: 1300 nM

C#CC[C@@H](C(=O)N[C@H](/C=C/C(=O)OCC)CC1CCNC1=O)n1cccc(NC(=O)c2cc(C)on2)c1=O (stereo partly specified)
metabolised at 0.5 h, 25 µM [9]: 40% | solubility thermodynamic at 4 h [10]: 377 µg/mL (≈ 720 µM) | half-life at 25 µM [11]: 6.6 h | EC50 (Human rhinovirus sp.): 58 nM

C#CCN(C)c1nc(NCCCCC2CCN(Cc3ccccc3)CC2)c(C#N)cc1C#N
IC50 [12]: > 100 nM

C#C[C@]1(CO)O[C@@H](n2cnc3c(N)nc(F)nc32)C[C@@H]1O
selectivity ratio [13]: > 60000 | IC50 [14]: 0.3 nM | CC50 [15]: 19200 nM

Oc1ncc(/C=C/Br)c(O)n1
Kinact [2]: 0.6 min⁻¹

C#CCN[C@@H]1CCc2ccc(OC(=O)N(C)CC)cc21 [LADOSTIGIL]
IC50 [16]: > 100000 nM

O=c1[nH]cc(C(F)(F)F)c(=O)[nH]1
Kinact [2]: 0.23 min⁻¹

C#C[C@@]1(CO)C=C[C@H](n2cc(C)c(=O)[nH]c2=O)O1 [CENSAVUDINE]
CC50 [6]: > 256000 nM | EC50 [7]: 250 nM

CCOC(=O)/C=C/[C@H](CC1CCNC1=O)NC(=O)[C@H](Cc1ccc(F)c(F)c1)n1cccc(NC(=O)c2cc(C)on2)c1=O (stereo partly specified)
EC50 (rhinovirus B14): 11 nM | metabolised at 0.5 h, 25 µM [9]: 81% | solubility thermodynamic at 4 h [10]: 25 µg/mL (≈ 40.9 µM) | half-life at 25 µM [11]: 1.4 h

C#CCN(C)[C@H](C)Cc1ccccc1 [SELEGILINE]
Ki [17]: 1000 nM | Kinact (Homo sapiens): 0.23 min⁻¹

C#Cc1c[nH]c(=O)[nH]c1=O
Kinact [2]: 5.64 min⁻¹

CC(C#Cc1ccc(Cc2ccc(F)cc2)s1)N(O)C(N)=O (stereo unspecified)
half-life [3]: 14.5 h

CC(c1cc2ccccc2s1)N(O)C(N)=O (stereo unspecified) [ZILEUTON]
half-life [3]: 0.4 h | clearance [4]: 14 mL/min/kg | Vmax [5]: 1.2 nmol/min/mg

CC(/C=C/c1cccc(Oc2ccc(F)cc2)c1)N(O)C(N)=O (stereo unspecified)
half-life [3]: 4.7 h | clearance [4]: 2 mL/min/kg | Vmax [5]: 0.19 nmol/min/mg

B1: Thymidine kinase, cytosolic (Homo sapiens) (protein)
chain: T2 sequence (P04183 whole entry)
Km [18]: 53 µM
